{"source": "patent US11976070B1", "about": "“Substituted pyrimido[6’, 1’:2,3]imidazo[4,5-c][1,6]naphthyridines as CK2 inhibitors” (KING FAISAL UNIVERSITY, priority 2023, dated 2024)", "key": {"[1]": {"tested_on": "MIAPaCa-2 (pancreas)", "assay": "In vitro cytotoxic activity (MTT) assay, MIAPaCa-2", "format": "cell-based", "conditions": "Homo sapiens, MIA PaCa-2; MIAPaCa-2 (pancreas) cells, exposed for 96 hours; read-out: IC50, 50% inhibition of cell proliferation", "procedure": "(§1) Compounds 1-12 were screened for their in vitro cytotoxic activity utilizing a 3-(4,5-dimethyl-thiazol-2-yl)-2,5-diphenyltetrazolium bromide (MTT) assay against selected cancer human cell lines consisting of PC3 (prostate), HCT116 (colon). A375 (melanoma), H1299 (lung), MIAPaCa-2 (pancreas), HL60 (leukemia), MCF7 (breast), MDA-MB-231 (breast) (T. Mosmann, J. Immunol. Meth., 1983, 65, 55-63). The cells were cultured at 37° C. in RMPI1640 medium supplemented with 10% fetal bovine serum, 50 IU/mL penicillin, and 50 μg/mL streptomycin in a 5% CO2 incubator. All cells were sub-cultured 3 times/week by trypsinisation. Viable cells were seeded and allowed to adhere for 12 h before a test drug was added in 96-well plates at an initial density of 1.0×10^5 cells/mL. Tumour cell lines were separately exposed to various concentrations of the tested compounds followed by incubation at a temperature of 37° C. during 96 h inside a medium of fresh RMPI 1640. Cells were subsequently incubated at 37° C. using MTT at 0.5 mg/mL during 4 h. After removal of supernatant, formazan crystals were dissolved in isopropanol and the optical density was measured at 570 nm. CX-4945 was used as a positive control."}, "[2]": {"tested_on": "various human cancer cell lines", "assay": "In vitro cytotoxic activity assay, panel statement", "format": "cell-based", "procedure": "as §1"}, "[3]": {"tested_on": "HL60 (leukemia)", "assay": "In vitro cytotoxic activity (MTT) assay, HL60", "format": "cell-based", "conditions": "Homo sapiens, HL-60; HL60 (leukemia) cells, exposed for 96 hours; read-out: IC50, 50% inhibition of cell proliferation", "procedure": "as §1"}, "[4]": {"tested_on": "H1299 (lung)", "assay": "In vitro cytotoxic activity (MTT) assay, H1299", "format": "cell-based", "conditions": "Homo sapiens, NCI-H1299; H1299 (lung) cells, exposed for 96 hours; read-out: IC50, 50% inhibition of cell proliferation", "procedure": "as §1"}, "[5]": {"tested_on": "HCT116 (colon)", "assay": "In vitro cytotoxic activity (MTT) assay, HCT116", "format": "cell-based", "conditions": "Homo sapiens, HCT-116; HCT116 (colon) cells, exposed for 96 hours; read-out: IC50, 50% inhibition of cell proliferation", "procedure": "as §1"}, "[6]": {"tested_on": "MCF7 (breast)", "assay": "In vitro cytotoxic activity (MTT) assay, MCF7", "format": "cell-based", "conditions": "Homo sapiens; MCF7 (breast) cells, exposed for 96 hours; read-out: IC50, 50% inhibition of cell proliferation", "procedure": "as §1"}, "[7]": {"tested_on": "PC3 (prostate)", "assay": "In vitro cytotoxic activity (MTT) assay, PC3", "format": "cell-based", "conditions": "Homo sapiens, Prostate cell; PC3 (prostate) cells, exposed for 96 hours; read-out: IC50, 50% inhibition of cell proliferation", "procedure": "as §1"}, "[8]": {"biological_target": "T1, recombinant human CK2 (RRββ-holoenzyme) (Homo sapiens, UniProt P68400)", "T1 construct": "purchased Millipore", "T1 sequence (P68400 whole entry)": "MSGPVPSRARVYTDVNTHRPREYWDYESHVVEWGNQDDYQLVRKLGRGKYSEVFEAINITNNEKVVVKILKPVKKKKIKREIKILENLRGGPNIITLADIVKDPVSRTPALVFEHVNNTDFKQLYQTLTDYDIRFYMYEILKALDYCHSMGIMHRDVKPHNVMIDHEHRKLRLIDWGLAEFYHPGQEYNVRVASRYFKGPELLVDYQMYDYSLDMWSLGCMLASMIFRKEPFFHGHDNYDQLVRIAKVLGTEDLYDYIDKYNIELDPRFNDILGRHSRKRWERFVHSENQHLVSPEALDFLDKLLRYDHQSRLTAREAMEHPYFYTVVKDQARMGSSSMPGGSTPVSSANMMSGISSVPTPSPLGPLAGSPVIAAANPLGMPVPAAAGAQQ", "T1 sequence (P67870 whole entry partner)": "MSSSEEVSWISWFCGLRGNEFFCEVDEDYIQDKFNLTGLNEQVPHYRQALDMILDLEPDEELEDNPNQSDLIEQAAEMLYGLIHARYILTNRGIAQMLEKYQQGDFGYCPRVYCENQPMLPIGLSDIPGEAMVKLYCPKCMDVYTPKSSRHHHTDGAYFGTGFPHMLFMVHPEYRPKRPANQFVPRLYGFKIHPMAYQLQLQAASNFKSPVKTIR", "assay": "CK2 Kinase Assay (radiometric, [γ-33P]ATP)", "format": "biochemical", "conditions": "final ATP 15 μM, 10 min at 30° C.; read-out: protein kinase CK2 inhibition IC50", "procedure": "CK2 Kinase Assay was conducted using the protocol as described in Pierre F. et al; J. Med. Chem. 2011, 54, 635-654. The tested compounds in aqueous solution were added at a volume of 10 μL to a reaction mixture comprising 10 μL of assay dilution buffer (ADB; 20 mM MOPS, pH 7.2, 25 mM β-glycerol phosphate, 5 mM EGTA, 1 mM sodium orthovanadate, and 1 mM dithiothreitol), 10 μL of substrate peptide (RRRDDDSDDD, dissolved in ADB at a concentration of 1 mM), 10 μL of recombinant human CK2 (RRββ-holoenzyme, 25 ng dissolved in ADB; Millipore). Reactions were initiated by the addition of 10 μL of ATP solution (90% 75 mMMgCl2, 75 μM ATP (final ATP concentration:15 μM) dissolved in ADB; 10% [γ-33P] ATP (stock 1 mCi/100 μL: 3000 Ci/mmol (Perkin-Elmer) and maintained for 10 min at 30° C. The reactions were quenched with 100 μL of 0.75% phosphoric acid and then transferred to and filtered through a phosphor cellulose filter plate (Millipore). After washing each well five times with 0.75% phosphoric acid, the plate was dried under vacuum for 5 min and, following the addition of 15 μL of scintillation fluid to each well, the residual radioactivity was measured using a Wallac […]. The IC50 values were derived from eight concentrations of test inhibitors."}, "[9]": {"tested_on": "A375 (melanoma)", "assay": "In vitro cytotoxic activity (MTT) assay, A375", "format": "cell-based", "conditions": "Homo sapiens, A-375; A375 (melanoma) cells, exposed for 96 hours; read-out: IC50, 50% inhibition of cell proliferation", "procedure": "as §1"}, "[10]": {"tested_on": "MDA-MB-231 (breast)", "assay": "In vitro cytotoxic activity (MTT) assay, MDA-MB-231", "format": "cell-based", "conditions": "Homo sapiens; MDA-MB-231 (breast) cells, exposed for 96 hours; read-out: IC50, 50% inhibition of cell proliferation", "procedure": "as §1"}}, "note": "Read-outs that look alike come from different tables or passages of the source."}
{"smiles": "Clc1cccc(Nc2nc3ccncc3c3nc4ccncn4c23)c1", "note": "[Compound 1, N-(3-chlorophenyl)pyrimido[6′,1′:2,3]imidazo[4,5-c][1,6]naphthyridin-6-amine]", "values": [{"measurement": "IC50", "setting": "[1]", "value": 0.9, "unit": "µM"}, {"measurement": "in vitro anti-proliferative activity, in words", "setting": "[2]", "value": "promising anti-proliferative activity"}, {"measurement": "in vitro anti-proliferative activity, in words", "setting": "[2]; listed as 13", "value": "promising in vitro anti-proliferative activity"}, {"measurement": "IC50", "setting": "[3]", "value": 3.2, "unit": "µM"}, {"measurement": "IC50", "setting": "[4]", "value": 2.5, "unit": "µM"}, {"measurement": "IC50", "setting": "[5]", "value": 1.1, "unit": "µM"}, {"measurement": "IC50", "setting": "[6]", "value": 5.1, "unit": "µM"}, {"measurement": "IC50", "setting": "[7]", "value": 1.4, "unit": "µM"}, {"measurement": "IC50", "setting": "[8]", "value": 0.022, "unit": "µM"}, {"measurement": "IC50", "setting": "[9]", "value": 2.9, "unit": "µM"}, {"measurement": "IC50", "setting": "[10]", "value": 4.5, "unit": "µM"}]}
